Assay results as given in patent US7902226B2, “Dehalogeno-compounds” (Daiichi Pharmaceutical Co., Ltd., priority 2000, dated 2011).
Values after ≈ are worked out from the molar mass of the structure shown. Read-outs that look alike come from different tables or passages of the source.

Experiments:
[1] = Urinary excretion after oral administration (excretion test groups); assay type: in vivo; conditions: fasting rats, 20 mg/kg, urine 0-24 h
Protocol: An administration solution was prepared by dissolving a tested compound to a concentration of 2 mg/ml (as free compound) in distilled water, and using a 2.5 ml disposable syringe or a metal oral probe, the solution was orally administered at a dose of 20 mg/kg to fasting rats (Crj: CD IGS; male; 7-week-old; Charles River Japan, Inc.). […]
Determination of drug concentrations in liquid samples were quantified by an agar well method bioassay using the B. subtilis ATCC6051 strain as the test organism. […] After addition of the sample, the plate medium was set still for 1 hour at 4° C. to perform preliminary dispersion and then culturing at 37° C. was performed for approximately 18 hours, and the inhibition ring diameters were measured using CA-400 (Dainippon Seiki). The concentrations of the test samples were measured using a calibration curve determined by second-order regression from the logarithmic values of the drug concentration of the calibration curve serial dilutions and the inhibition ring diameters.
The urinary excretion rate (%) was determined from the amount (μg) of drug administered, amount (ml) of urine (or washing solution), and concentration (μ/ml) in urine (or washing solution): [(Urinary excretion rate]=100×([Amount of urine]×[Concentration in urine])/[Amount of drug administered] Method 3: Calculation of Pharmacokinetic Parameters

bone marrow of mice = assay: Micronucleus test in bone marrow of mice; assay type: in vivo; conditions: Slc:ddY male mice, 24 hours after administration
Protocol: For the compound described as Example 1 of this invention, the micronucleus test in bone marrow of mice was performed by the following method.
Mice groups, each consisting of five, six-week-old, Slc:ddY male mice, were used. The compound of this invention described as Example 1 and 7-[3-(R)-(1-aminocyclopropyl)pyrrolidin-1-yl]-6-fluoro-1-[2-(S)-fluoro-1-(R)-cyclopropyl]-8-methyl-1,4-dihydro-4-oxoquinoline-3-carboxylic acid (Reference drug 1) described in PCT/JP96/00208 were dissolved in and diluted with 0.1 mol/l NaOH/saline solution. The 0.1 mol/l NaOH/saline solvent was used as a control, and as a positive Reference drug, a drug solution, prepared by dissolving and diluting cyclophosphamide (CP) in saline solution, was used. All drug solutions were disinfected by filtration through Mylex GS 0.22 μm filters. With each drug solution, a single intravenous dose of 10 ml/kg was administered at an administration rate of 0.2 ml/min. 24 hours after administration, […] were collected from the femur bone, the smear preparations were prepared, and these were dyed with […].

[2] = Blood concentration and organ concentration after oral administration (absorption test groups); assay type: in vivo; conditions: fasting rats, 20 mg/kg; for Kp / Cmax / AUC(0-t) / half-life: male, Crj: CD IGS, rat; for Cmax / AUC(0-t) / half-life: serum; for AUC(0-t): read-out: Serum AUC0-4h; for half-life: read-out: Serum t1/2 (converted)
Protocol: For the compound of this invention described as Example 1, the blood concentration and organ concentration after oral administration were determined by the following methods. Measurements were also made by the same methods for Reference drug 1.
An administration solution was prepared by dissolving a tested compound to a concentration of 2 mg/ml (as free compound) in distilled water, and using a 2.5 ml disposable syringe or a metal oral probe, the solution was orally administered at a dose of 20 mg/kg to fasting rats (Crj: CD IGS; male; 7-week-old; Charles River Japan, Inc.).
The absorption test groups (4 rats per group; total of 6 groups) were killed by exsanguination while under ether anesthetization 0.25, 0.5, 1, 2, 4, or 6 hours after drug administration, and the blood, liver, kidneys, and lungs were sampled. With the blood, serum was sampled by centrifugation (3000 rpm×15 minutes, 4° C.) after coagulation. Tissues were homogenized after adding 3 to 5 ml of 0.1M phosphate buffer solution (pH 7.0) and the centrifugation supernatants (3000 rmpm×15 minutes, 4° C.) were collected.
Determination of drug concentrations in liquid samples were quantified by an agar well method bioassay using the B. subtilis ATCC6051 strain as the test organism. A test medium was prepared by inoculating a suspension containing 5×10^7 CFU/ml of spores of the test bacteria at a proportion of 1% into an nutrient agar (Eiken Kagaku) that was sterilized at 121° C. for 15 minutes and then cooled to approximately 50° C. After placing 10 ml each of this medium in a sterilized Petri dish and solidifying horizontally, four holes of 8 mm diameter were made to prepare a test plate medium. The Bioassay System TDA-1 (Dainippon Seiki) was used for preparation of the test plate media. For the measurements, the test samples (diluted with serum or phosphate buffer solution as necessary), serial dilutions of the drug solutions for calibration (two-fold serial dilutions prepared so that the inhibition ring diameter will be approximately 10 to 30 mm), and a reference drug solution (a drug solution of given concentration for correction of the error among plates; normally, a concentration of forming an inhibition ring of approximately […] is used) were prepared, and 50 μL of the test sample (or the drug solution for calibration) were placed in each of two of the four holes of each plate and 50 μL of the reference solution was placed in each of the other two holes. After addition of the sample, the plate medium was set still for 1 hour at 4° C. to perform preliminary dispersion and then culturing at 37° C. was performed for approximately 18 hours, and the inhibition ring diameters were measured using CA-400 (Dainippon Seiki). The concentrations of the test samples were measured using a calibration curve determined by second-order regression from the logarithmic values of the drug concentration of the calibration curve serial dilutions and the inhibition ring diameters.
For the tissue concentration (μg/ml), the concentration (μg/ml) in the homogenate supernatant was determined from the tissue weight (g) and the added phosphate buffer amount (ml) and using the following equation: [Tissue concentration]=[Homogenate concentration]×([Tissue weight]+[Buffer solution amount])/[Tissue weight]
For each drug, the pharmacokinetic parameters in rats were calculated based on mean concentration, by non-compartmental analysis, and using the pharmacodynamics analysis software, PSAG-CP (Asmedica).

Ps. aeruginosa, 32121 = assay: Antibacterial activity (MIC), standard method of the Japan Society of Chemotherapy; assay type: cell-based; conditions: Pseudomonas aeruginosa
Protocol: (§1) Antibacterial activities of the compounds of this invention were measured in accordance to the standard method designated by the Japan Society of Chemotherapy, with the results shown as MIC values (microgram/ml) units in the following table. For comparison with the MIC values of the compounds of this invention, MIC values of levofloxacin (LVFX), ciprofloxacin (CPFX) and 7-[3-(R)-(1-aminocyclopropyl)pyrrolidin-1-yl]-6-fluoro-1-[2-(S)-fluoro-1-(R)-cyclopropyl]-8-methyl-1,4-dihydro-4-oxoquinoline-3-carboxylic acid (Reference drug 1), which is described in PCT/JP96/00208, are also shown in the table.

Ps. aeruginosa, 32104 = assay: as above; assay type: cell-based; conditions: Pseudomonas aeruginosa
Protocol: as §1

E. coli, NIHJ = assay: as above; assay type: cell-based; conditions: Escherichia coli
Protocol: as §1

Str. pneumoniae J24 = assay: as above; assay type: cell-based; conditions: Streptococcus pneumoniae
Protocol: as §1

[3] = test system: Ps. maltophilia, IID-1275; assay: as above; assay type: cell-based; conditions: Stenotrophomonas maltophilia, IID1275
Protocol: as §1

[4] = kidney/serum, kidney, read-out: AUC0-4h tissue/serum ratio Kidney
[5] = liver/serum, liver, read-out: AUC0-4h tissue/serum ratio Liver
[6] = lung/serum, lung, read-out: AUC0-4h tissue/serum ratio Lung

| Structure (SMILES) | Urinary recovery ratio (per dose) 0-24 h [1] | micronucleus induction, judgment result (bone marrow of mice; single intravenous dose, 25, 50, and 100 mg/kg administration groups, versus control) | Tissue AUC0-4h Kidney ([2]; kidney) | Tissue Cmax Kidney ([2]; kidney) | Tissue AUC0-4h Liver ([2]; liver) | Tissue Cmax Liver ([2]; liver) | Tissue AUC0-4h Lung ([2]; lung) | Tissue Cmax Lung ([2]; lung) | Kp [2, 4] | Kp [2, 5] | Kp [2, 6] | Cmax [2] | AUC(0-t) [2] | half-life [2] | MIC (Ps. aeruginosa, 32121) | MIC (Ps. aeruginosa, 32104) | MIC (E. coli, NIHJ) | MIC (Str. pneumoniae J24) | MIC [3] | micronucleus induction in comparison to the control (bone marrow of mice; single intravenous dose, 50 and 100 mg/kg administration groups) |
| --- | --- | --- | --- | --- | --- | --- | --- | --- | --- | --- | --- | --- | --- | --- | --- | --- | --- | --- | --- | --- |
| Cc1c(N2CC[C@@H](C3(N)CC3)C2)ccc2c(=O)c(C(=O)O)cn([C@@H]3C[C@@H]3F)c12 [Example 1, 7-[3-(R)-(1-aminocyclopropyl)pyrrolidin-1-yl]-1-[2-(S)-fluoro-1-(R)-cyclopropyl]-1,4-dihydro-8-methyl-4-oxoquinoline-3-carboxylic acid] | 8.1% | negative | 29.0 | 14.2 µg/g | 34.5 | 27.4 µg/g | 10.0 | 3.8 µg/g | 29 | 34.5 | 10 | 1700 ng/mL | 3100 ng·h/mL | 1.2 h | 0.025 µg/mL (≈ 0.0649 µM) | 0.05 µg/mL (≈ 0.13 µM) | ≤ 0.003 µg/mL | ≤ 0.003 µg/mL | 0.2 µg/mL (≈ 0.519 µM) | – |
| Cc1c(N2CC[C@@H](C3(N)CC3)C2)c(F)cc2c(=O)c(C(=O)O)cn([C@@H]3C[C@@H]3F)c12 [Reference drug 1, 7-[3-(R)-(1-aminocyclopropyl)pyrrolidin-1-yl]-6-fluoro-1-[2-(S)-fluoro-1-(R)-cyclopropyl]-8-methyl-1,4-dihydro-4-oxoquinoline-3-carboxylic acid, reference compound] | 1.8% | – | 7.1 | 5.0 µg/g | 10.4 | 11.6 µg/g | 5.3 | 3.0 µg/g | 7.1 | 10.4 | 5.3 | 1600 ng/mL | 2300 ng·h/mL | 1 h | 0.012 µg/mL (≈ 0.0297 µM) | 0.025 µg/mL (≈ 0.062 µM) | ≤ 0.003 µg/mL | ≤ 0.003 µg/mL | ≤ 0.003 µg/mL | clearly seen |
